Laboratory results from US20250235543A1, “MODIFIED PROTEINS AND PROTEIN DEGRADERS” (Cullgen (Shanghai), Inc., priority 2021, published 2025).

Legend:
Format in all cases: cell-based
[1] = test system: Rb phosphorylation, cleaved caspase-3; assay: Immunoblotting of downstream Rb phosphorylation and cleaved caspase-3 in Calu-1 or BT-549 cells; conditions: 16 hours
Method: Calu-1 (FIG. 2A) or BT-549 (FIG. 2B) cells were treated with CPD-002, CPD-004, or palbociclib at indicated concentrations for 16 hours.
(§1) Cultured cells were washed with cold PBS once and lysed in cold RIPA buffer supplemented with protease inhibitors and phosphatase inhibitors (Beyotime Biotechnology). The solutions were then incubated at 4° C. for 30 min with gentle agitation to fully lysed cells. Cell lysates were centrifuged at 13,000 rpm for 10 min at 4° C. and pellets were discarded. Total protein concentrations in the lysates were determined following BCA assays (Beyotime Biotechnology). Cell lysates were mixed with Laemmli loading buffer and heated at 99° C. for 5 min. Proteins were resolved on SDS-PAGE and visualized using Western ECL Substrate kits on a ChemiDoc MP Imaging system (Bio-Rad). Protein bands were quantitated using the Image Lab software provided by Bio-Rad.

cyclin D1 [2] = assay: Immunoblot of cyclin D1 in parental or DDB1 knockout Hs578T cells; conditions: parental vs DDB1 knockout Hs578T cells, 4 hours
Method: FIG. 5 show immunoblots of cyclin D1, cyclin D2 and cyclin D3 proteins expressed by Calu-1 cells after treatment with heterobifunctional compounds CPD-002 and CPD-004 (A), or CPD-031 (B) in the presence or absence of MLN4924 (MLN), MG-132 (MG), or TAK-243 (TAK), and immunoblots of cyclin D1 proteins expressed in parental or DDB1 knockout Hs578T cells after treatment with heterobifunctional compound CPD-031 at indicated concentrations for 4 hours (C).
The heterobifunctional compound-mediated degradation was dependent on the ubiquitin-proteasome system and cullin E3 ligase. […] In addition, DDB1 E3 ligase was critical for the degrader-induced cyclin D downregulation. Depletion of DDB1 using CRISPR-Cas9 technology attenuated the cyclin D degradation induced by CPD-031 (FIG. 5C).

cyclin D1 [3] = assay: Cyclin D1 degradation in parental and DDB1 knockout Hs578T cells; conditions: dose range, 4 hours
Method: Parental and DDB1 knockout Hs578T cells were treated with a dose range of CPD-031 for 4 hours (FIG. 5C).
The procedures for CRISPR-Cas9 mediated knock-out followed the previously published protocols (Ran et al., 2013). The sgRNA targeting human DDB1 (sgRNA sequence: […]) (SEQ ID NO: 1) was designed using the online CRISPR Design Tool (chopchop.cbu.uib.no/), and constructed into CRISPR-Cas9 vector, pLentiCRISPR V2 (Addgene #52961). Lentivirus was produced in HEK293T cells by co-transfecting pLentiCRISPR construct with packing vectors. Hs578T cells stably expressing Cas9 enzyme and sgRNA were established by lentivirus transduction, selected, and maintained in medium containing […] puromycin.
as §1, with “Proteins were resolved on SDS-PAGE and visualized using Western ECL Substrate kits on a ChemiDoc MP Imaging system (Bio-Rad).” left out

In the case of `CC(=O)c1c(C)c2cnc(Nc3ccc(N4CCN(CC(=O)NCCOCCOCCOCCOCCOCCNc5ccc(C(=O)Nc6ncc(C)s6)c(C)c5)CC4)cn3)nc2n(C2CCCC2)c1=O` [CPD-002, 4-((1-(4-(6-((6-Acetyl-8-cyclopentyl-5-methyl-7-oxo-7,8-dihydropyrido[2,3-d]pyrimidin-2-yl)amino)pyridin-3-yl)piperazin-1-yl)-2-oxo-6,9,12,15,18-pentaoxa-3-azaicosan-20-yl)amino)-2-methyl-N-(5-methylthiazol-2-yl)benzamide], the “downstream Rb phosphorylation and cleaved caspase-3” value [1] was “inhibited downstream Rb phosphorylation and induced cleaved caspase-3 in a concentration-dependent manner”.
In the case of `CC(=O)c1c(C)c2cnc(Nc3ccc(N4CCN(CC(=O)NCCOCCOCCOCCOCCOCCNc5ccc(C(=O)Nc6nc(C)c(C)s6)c(C)c5)CC4)cn3)nc2n(C2CCCC2)c1=O` [CPD-031, 4-((1-(4-(6-((6-Acetyl-8-cyclopentyl-5-methyl-7-oxo-7,8-dihydropyrido[2,3-d]pyrimidin-2-yl)amino)pyridin-3-yl)piperazin-1-yl)-2-oxo-6,9,12,15,18-pentaoxa-3-azaicosan-20-yl)amino)-N-(4,5-dimethylthiazol-2-yl)-2-methylbenzamide], the “cyclin D degradation after depletion of DDB1 (CRISPR-Cas9)” value (cyclin D1 [2]) was “attenuated” and the “cyclin D1 degradation in DDB1 knockout versus parental cells” value (cyclin D1 [3]) was “partially compromised by depletion of DDB1 E3 ligase”.
